Like-named read-outs stand apart in the source and are kept apart here.
Columns and labels:
[1] = molecular target: T1, GCD (recombinant gelatinase A catalytic domain) (Homo sapiens, UniProt P08253); assay: Inhibition of GCD (recombinant gelatinase A catalytic domain), thiopeptolide substrate; format: biochemical; conditions: thiopeptolide substrate Ac-Pro-Leu-Gly-thioester-Leu-Leu-Gly-OEt
T1 construct: propeptide, C-terminal domain and fibronectin-like insert removed; E. coli host likely
T1 sequence (P08253 110-660): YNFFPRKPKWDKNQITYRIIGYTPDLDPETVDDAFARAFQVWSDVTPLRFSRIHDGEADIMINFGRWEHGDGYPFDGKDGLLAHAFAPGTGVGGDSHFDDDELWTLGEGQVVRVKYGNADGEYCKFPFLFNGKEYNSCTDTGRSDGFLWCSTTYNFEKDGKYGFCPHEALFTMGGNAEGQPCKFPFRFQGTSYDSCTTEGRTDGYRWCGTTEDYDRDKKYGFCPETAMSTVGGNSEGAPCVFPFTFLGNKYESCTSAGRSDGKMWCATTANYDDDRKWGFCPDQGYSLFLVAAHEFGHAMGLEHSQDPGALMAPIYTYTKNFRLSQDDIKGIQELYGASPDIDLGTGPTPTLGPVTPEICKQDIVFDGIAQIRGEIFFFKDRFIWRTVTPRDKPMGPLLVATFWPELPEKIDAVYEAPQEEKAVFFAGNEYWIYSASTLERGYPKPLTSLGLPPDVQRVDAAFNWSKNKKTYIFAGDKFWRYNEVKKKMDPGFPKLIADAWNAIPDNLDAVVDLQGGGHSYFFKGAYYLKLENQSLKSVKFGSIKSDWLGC
Text: Matrix metalloproteinases share high sequence homology and the catalytic domains of each of the MMPs can be identified by sequence alignment. The gene for the catalytic domain of stromelysin-1, SCD, was constructed by removing the propeptide and C-terminal domain (Ye Q.-Z., Johnson L.L, Hupe D.J., and Baragi V., "Purification and Characterization of the Human Stromelysin Catalytic Domain Expressed in Escherichia coli", Biochemistry,1992;31:11231-11235). The gelatinase A catalytic domain, GCD, was similarly constructed with the additional removal of the fibronectin-like insert which interrupts the catalytic domain (Ye Q.-Z., Johnson L.L, Yu A.E., and Hupe D., "Reconstructed 19 kDa Catalytic Domain of Gelatinase A is an Active Proteinase", Biochemistry, 1995;34:4702-4708). Both truncated proteins cleave synthetic peptide substrates and the natural substrates proteoglycan and gelatin in a manner similar to the full-length enzymes and can be used to identify matrix metalloproteinase inhibitors.
Experiments were carried out with both the full-length enzymes and the catalytic domains. […] IC50 values were determined using a thiopeptolide substrate, Ac-Pro-Leu-Gly-thioester-Leu-Leu-Gly-OEt (Ye Q.-Z., Johnson L.L., Hupe D.J., and Baragi V., "Purification and Characterization of the Human Stromelysin Catalytic Domain Expressed in Escherichia coli", Biochemistry,1992;31:11231-11235). […]

[2] = molecular target: T2, collagenase (full-length native enzyme) (Homo sapiens, UniProt P03956); assay: Inhibition of collagenase (full-length native enzyme), thiopeptolide substrate; format: biochemical
T2 construct: collagenase (full-length native enzyme)
T2 sequence (P03956 100-469): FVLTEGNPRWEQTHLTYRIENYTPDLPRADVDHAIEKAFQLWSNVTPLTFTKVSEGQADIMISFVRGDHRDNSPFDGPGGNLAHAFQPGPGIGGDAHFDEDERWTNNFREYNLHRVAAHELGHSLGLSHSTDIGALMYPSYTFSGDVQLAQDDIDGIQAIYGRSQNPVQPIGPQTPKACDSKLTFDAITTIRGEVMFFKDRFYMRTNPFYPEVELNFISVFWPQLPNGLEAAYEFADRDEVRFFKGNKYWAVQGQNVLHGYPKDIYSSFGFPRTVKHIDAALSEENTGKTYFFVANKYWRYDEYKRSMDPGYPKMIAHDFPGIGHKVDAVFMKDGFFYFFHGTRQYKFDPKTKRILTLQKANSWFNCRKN
Experimental: Experiments were carried out with both the full-length enzymes and the catalytic domains. […] IC50 values were determined using a thiopeptolide substrate, Ac-Pro-Leu-Gly-thioester-Leu-Leu-Gly-OEt (Ye Q.-Z., Johnson L.L., Hupe D.J., and Baragi V., "Purification and Characterization of the Human Stromelysin Catalytic Domain Expressed in Escherichia coli", Biochemistry,1992;31:11231-11235). […] IC50 values for gelatinase B, and collagenase, were >100 μM.

EAE Rats [3] = assay: EAE Lewis rat acute model, Protocol 1 (daily oral dosing Day 0-14); format: in vivo
Experimental: (§1) Female Lewis rats were purchased from Harlan Sprague-Dawley (Indianapolis, IN) and were used at 8 to 10 weeks of age. Active EAE was induced by injection of 0.05 mL emulsion of myelin basic protein (MBP) with complete Freund's adjuvant (CFA), containing 25 μg guinea pig MBP and 100 μg Mycobacterium butyricum (Difco Laboratories, Detroit, MI) into one hind footpad. Immunized rats were observed daily for clinical signs of EAE and scored as follows: 0, no symptoms; 1, loss of tail tonicity; 2, paresis; 3, hind limb paralysis, often accompanied by incontinence; and 4, death. Formalin-fixed brain slice sections were stained with hematoxylin-eosin and evaluated microscopically for perivascular and parenchymal infiltration. Compound was administered by gavage as a solution in sterile saline in a volume of 500 μL. […] Several different protocols were used to define the efficacy and timing requirements for potency.
Protocol 1: Compound was administered daily at 50 mg/kg beginning on Day 0 and continuing through Day 14, with MBP in CFA administered on Day 0 also. […] N=5 for all groups.

EAE Rats [4] = assay: EAE Lewis rat acute model, Protocol 2 (alternate-day oral dosing Day 0-14); format: in vivo; conditions: for Effect on EAE Rats (≥Paresis/Total): CFA + MBP control 5/7
Experimental: as §1
Controls run in parallel included CFA only and MBP in CFA. N=4 for treatment groups. N=8 for controls.

[5] = system: leukocyte migration across the blood-brain barrier; assay: Histology of brain slices from Protocol 1 EAE animals; format: in vivo, Lewis rat; conditions: 50 mg/kg daily dosing schedule
Experimental: The activity of Example 2 in suppressing the inflammatory disease associated with EAE was tested using the Lewis rat acute model. Female Lewis rats were purchased from Harlan Sprague-Dawley (Indianapolis, IN) and were used at 8 to 10 weeks of age. Active EAE was induced by injection of 0.05 mL emulsion of myelin basic protein (MBP) with complete Freund's adjuvant (CFA), containing 25 μg guinea pig MBP and 100 μg Mycobacterium butyricum (Difco Laboratories, Detroit, MI) into one hind footpad. Immunized rats were observed daily for clinical signs of EAE and scored as follows: 0, no symptoms; 1, loss of tail tonicity; 2, paresis; 3, hind limb paralysis, often accompanied by incontinence; and 4, death. Formalin-fixed brain slice sections were stained with hematoxylin-eosin and evaluated microscopically for perivascular and parenchymal infiltration. Compound was administered by gavage as a solution in sterile saline in a volume of 500 μL. The dose of 50 mg/kg typically required 7.5 mg of compound per rat. Several different protocols were used to define the efficacy and timing requirements for potency.

[6] = system: Mycobacterium footpad edema; assay: Mycobacterium footpad edema assay (MFE); format: in vivo, Wistar rats; conditions: all values of Table IV (2, 10, 50 mg/kg)
Experimental: (§2) The activity of Example 2 as a general inhibitor of inflammation was tested using the Mycobacterium footpad edema assay (MFE) in Wistar rats. Compound was administered daily by gavage at 2 mg/kg, 10 mg/kg, or 50 mg/kg.
Male outbred Wistar rats (110-125 g, Charles River Labs, Portage, Mich.) were used in this study. Rats were housed for a minimum of 1 week before use. Food and water were supplied ad libitum. Foot pad edema was induced following the method described by Martel R.R. and Klicius J., "Comparisons in rats of the antiinflammatory and gastric irritant effects of etodolac with several clinically effective antiinflammatory drugs", Agents and Actions, 1982;12:295. […] Swelling was assessed on the third day by subtracting the initial volume (determined immediately following the Mycobacterium injection) from the final volume of the treated paw. Paw volume was determined by mercury plethysmography. The percent inhibition of edema achieved in each compound-treated group was determined by comparison with swelling in the vehicle-treated group and the ID50 values were determined by regression analysis. Statistical significance between experimental groups was evaluated using a Student's t-test.

[7] = Plasma concentrations after oral dosing; format: in vivo, Wistar rats; conditions: for Cmax: read-out: plasma concentration (Cmax)
Experimental: as §2, with “mg/kg. […] The bioavailability of this compound is therefore well in excess of the effective range of gelatinase A inhibition determined in the in vitro assays.” for “mg/kg.”

[8] = system: experimental allergic encephalomyelitis (EAE); conditions: Gijbels et al.; dose dependent; cited from earlier work

Compound	IC50 [1] [nM]	IC50 [2] [nM]	average scores for the treated group (EAE Rats [3]; 50 mg/kg daily, Day 0 through Day 14)	percentage of animals responding (total inhibition or reduction of symptoms) (EAE Rats [3]; 50 mg/kg daily, Day 0 through Day 14, N=5) [%]	Effect on EAE Rats (≥Paresis/Total) (EAE Rats [3]; CFA + Example 2 (no MBP), 50 mg/kg daily oral from Day 0)	Effect on EAE Rats (≥Paresis/Total) (EAE Rats [3]; CFA + MBP + Example 2, 50 mg/kg daily oral from Day 0, CFA + MBP control 5/5)	Effect on EAE Rats (≥Paresis/Total) (EAE Rats [4]; CFA + MBP + Example 2, 10 mg/kg alternate days)	Effect on EAE Rats (≥Paresis/Total) (EAE Rats [4]; CFA + MBP + Example 2, 50 mg/kg alternate days)	significance (p) of decrease in disease severity (EAE Rats [4]; Day 15, 10 or 50 mg/kg alternate days)	CNS inflammation [5]	cuff formation [5]	leukocyte migration across the blood-brain barrier [5]	statistical significance of inhibition of the inflammatory response [6]	Cmax and AUC(0-4) dose dependence ([7]; 2, 10, 50 mg/kg)	Cmax ([7]; rat, plasma, po, 2-mg/kg dose) [µM]	Cmax ([7]; rat, plasma, po, 10-mg/kg dose) [µM]	Cmax ([7]; rat, plasma, po, 50-mg/kg dose) [µM]	Tmax ([7]; rat, plasma, po, post-treatment, read-out: time of peak plasma concentration) [h]	plasma concentration decline ([7]; through the subsequent 4 hours after peak)	effect on development or clinical expression of EAE [8]
O=C(O)CCC(=NO)c1ccc2oc3ccccc3c2c1 [Example 2, 4-Dibenzofuran-2-yl-4-hydroximino-butyric acid]	40	> 100000	substantially reduced	100	0/5	1/5	0/4	0/4	≤ 0.01	little CNS inflammation	no cuff formation	completely prevented	statistically significant	increase proportionately with dose	4.62	38.8	163	1	declined mono-exponentially	–
CNC(=O)[C@H](Cc1c[nH]c2ccccc12)NC(=O)[C@@H](CC(=O)NO)CC(C)C [GM6001]	–	–	–	–	–	–	–	–	–	–	–	–	–	–	–	–	–	–	–	suppressed the development or reversed the clinical expression of experimental allergic encephalomyelitis (EAE) in a dose dependent manner

Source: US5627206A, “Tricyclic inhibitor of matrix metalloproteinases” (Warner-Lambert Company, priority 1995, dated 1997)
